The melting point is the temperature, or range, at which the solid turns liquid.

One series relates to MCP-1. The series can be described thus: MCP-1 ELISA on culture media of TNF-α stimulated HUVECs. The series is classed as cell-based. As to conditions: Homo sapiens, HUVEC, 50 uM, approx. 16 hours. The procedure: (§1) Compounds were dissolved in DMSO, aliquoted, and stored at −20° C. Cultured human vascular endothelial cells (HUVECs) were seeded in 96-well plates in complete EGM-2 media (˜100 μL/well); cells were plated at ˜2-3×10^5/mL, and were from passage 8 to 12. Cells were incubated overnight. On the following day cells are stimulated with TNF-α (˜1 ng/mL) in the presence or absence of compounds dissolved in DMSO. Triplicate wells were used for each test. To establish a dose curve and an IC50, multiple concentrations in 2- to 5-fold increments were used. Cells were exposed to TNF-α and compounds for approximately 16 hours. The next day, cells were visually examined via light microscopy to score for visual signs of toxicity. Cell culture media was analyzed using an MCP-1 ELISA. Cells were refed (−100 μL/well) with 20% CellTiter 96. Aqueous One Cell Proliferation Solution (Promega), 80% EGM-2 medium. Media optical density (at 490 nm) was determined after 1 hour. Plates were aspirated and cell lysates were prepared and these lysates were tested using a VCAM-1 ELISA.
(§2) In Table 2, a positive result (+) was defined as at least 50% inhibition of the protein levels MCP-1 or VCAM-1, as determined by the ELISA.
For orientation: ELISA stands for enzyme-linked immunosorbent assay.

Series [1] has as its system Human coronary artery smooth muscle cells (CASMCs). The series can be described thus: Smooth muscle cell proliferation protocol. The series is classed as cell-based. The note with it: 50 uM, 72 hours, read-out: % Inhibition of SMC Proliferation. The procedure:
Compounds were dissolved in DMSO, aliquoted, and stored at −20° C. Human coronary artery smooth muscle cells (CASMCs) were plated in 96-well plates and were grown in SmBM-2 media. After 1-2 hours, media was aspirated and replaced with serum-free ME/F12 media, except the controls. Cells were incubated for a further 48 hours. Compounds were diluted in DME/F12 containing 10% FBS. Media was aspirated from the plates and compounds in DME/F12 containing 10% FBS. Six wells were used per condition and duplicate plates were used. Cells were incubated for a further 72 hours. Media was aspirated from one set of plates; those cells were refed (˜100 μL/well) with 20% CellTiter 96 Aqueous One Cell Proliferation Solution (Promega), 80% EGM-2 medium. Media optical density (at 490 nm) was determined after 3-4 hours. In the second set of plates, serum-free DME/F12 media (20 μL) was added to each well. Part of the supernatant (50 μL) was removed and placed in an ELISA plate and was stored temporarily at 4° C. The remaining media and cells in the second set of plates were freeze-thawed for four cycles. The lysates and supernatants were mixed and centrifuged. Part of the supernatant (50 μL) was removed and placed in an ELISA plate. The Promega Cytotox assay was performed on the ELISA plates. The ratio of supernatant OD to supernatant+cell lysate OD was determined.
In Table 2, a positive result (+) was defined as at least 40% inhibition of the proliferation of SMC, as determined by the assay.

The test system of another series is VCAM-1. The series can be described thus: VCAM-1 ELISA on lysates of TNF-α stimulated HUVECs. The series is classed as cell-based. As to conditions: Homo sapiens, HUVEC, 50 uM, approx. 16 hours. The procedure: as §1, §2
For series [2] the following is noted: following oral administration (Gugler et al. 1975); cited from earlier work.

Consider `Cn1c(-c2ccc(O)c(F)c2)cc2ncccc2c1=O` [EXAMPLE 16, 7-(3-Fluoro-4-hydroxyphenyl)-6-methyl-1,6-naphthyridin-5(6H)-one], for which the melting point was 182 to 184 °C. The compound also yielded an inhibition at 50 µM with MCP-1 of less than 50%. Also, in series [1], the inhibition at 50 µM was less than 40%. This compound came in with an inhibition at 50 µM in the series with VCAM-1 of less than 50%.

Consider `CNc1nc(-c2ccc(O)c(F)c2)cc2c(OC)cccc12` [EXAMPLE 17, 2-Fluoro-4-(5-methoxy-1-(methylamino)isoquinolin-3-yl)phenol], for which the melting point fell in the range of 185 to 187 °C. In addition, in the series on MCP-1, the inhibition at 50 µM was not below 50%. Further, in series [1], the inhibition at 50 µM was less than 40%. Further, the inhibition at 50 µM in the series on VCAM-1 is not below 50%.

`COc1cccc2c(=O)[nH]c(-c3ccc(O)c(F)c3)cc12` [EXAMPLE 18, 3-(3-Fluoro-4-hydroxyphenyl)-5-methoxyisoquinolin-1(2H)-one] showed a melting point of 289 to 291 °C. The same compound returned an inhibition at 50 µM in the series on MCP-1 not below 50%. Besides, the inhibition at 50 µM in series [1] is not below 40%. This compound also registered an inhibition at 50 µM with VCAM-1 not below 50%.

`COc1cc(OC)c2c(=O)[nH]c(-c3ccc(O)cc3)cc2c1` [EXAMPLE 19, 3-(4-Hydroxyphenyl)-6,8-dimethoxyisoquinolin-1(2H)-one] had a melting point of 245 to 247 °C. The inhibition at 50 µM with MCP-1 is not below 50%. For the same compound, the inhibition at 50 µM in series [1] was not below 40%. The inhibition at 50 µM in the series on VCAM-1 is less than 50%.

Compound `O=c1[nH]c(-c2ccc(O)cc2)cc2ccccc12` [EXAMPLE 21, 3-(4-Hydroxyphenyl)-2H-isoquinolin-1-one] returned a melting point of 239 to 241 °C. Further, in the series on MCP-1, the inhibition at 50 µM was not below 50%. The inhibition at 50 µM in series [1] was not below 40%. The compound also registered an inhibition at 50 µM with VCAM-1 not below 50%.

`O=c1cc(-c2ccccc2)oc2ncccc12` [EXAMPLE 22, 2-Phenyl-4H-pyrano[2,3-b]pyridin-4-one] registered a melting point of 103 to 105 °C. Also, the inhibition at 50 µM with MCP-1 is less than 50%. For the same compound, the inhibition at 50 µM in series [1] is not below 40%. In the series with VCAM-1, this compound had an inhibition at 50 µM of less than 50%.

Compound `O=c1cc(-c2ccc(CO)cc2)oc2ncccc12` [EXAMPLE 23, 2-(4-(hydroxymethyl)phenyl)-4H-pyrano[2,3-b]pyridin-4-one] gave a melting point of 218 to 219 °C. Besides, the inhibition at 50 µM with MCP-1 was less than 50%. For the same compound, the inhibition at 50 µM in series [1] was not below 40%. Further, the inhibition at 50 µM in the series on VCAM-1 is less than 50%.

`Cc1cc(-c2cc(=O)c3cccnc3o2)cc(C)c1O` [EXAMPLE 24, 2-(4-hydroxy-3,5-dimethylphenyl)-4H-pyrano[2,3-b]pyridin-4-one] returned a melting point of 295 to 297 °C. The inhibition at 50 µM in the series on MCP-1 is not below 50%. In series [1], the inhibition at 50 µM is not below 40%. In the series with VCAM-1, this compound came in with an inhibition at 50 µM not below 50%.

Take `O=c1cc(-c2cccnc2)oc2ccccc12` [EXAMPLE 25, 2-(pyridin-3-yl)-4H-chromen-4-one]: the melting point lay within 122.8 to 124 °C. This compound displayed an inhibition at 50 µM in the series on MCP-1 of less than 50%. The inhibition at 50 µM in series [1] is not below 40%. This compound returned an inhibition at 50 µM with VCAM-1 of less than 50%.

For the compound `O=c1cc(-c2ccc(O)c(-c3cccs3)c2)oc2ncccc12` [EXAMPLE 28, 2-(4-hydroxy-3-(thiophen-2-yl)phenyl)-4H-pyrano[2,3-b]pyridin-one], the melting point lay within 273.5 to 275 °C. The compound also had an inhibition at 50 µM in the series with MCP-1 of less than 50%. Also, in series [1], the inhibition at 50 µM was less than 40%. For the same compound, the inhibition at 50 µM in the series on VCAM-1 was not below 50%.

`Cc1cc(-c2cc(=O)c3cccnc3o2)cc(C)c1OCC(=O)O` [EXAMPLE 29, 2-(2,6-dimethyl-4-(4-oxo-4H-pyrano[2,3-b]pyridin-2-yl)phenoxy)acetic Acid] had a melting point of 280 °C. In addition, the inhibition at 50 µM in the series on MCP-1 was less than 50%. Also, in series [1], the inhibition at 50 µM is not below 40%. The inhibition at 50 µM with VCAM-1 is less than 50%.

Take `O=c1cc(-c2ccc(O)c(Br)c2)oc2ncccc12` [EXAMPLE 32, 2-(3-Bromo-4-hydroxyphenyl)-4H-pyrano[2,3-b]pyridin-4-one]: the melting point lay within 267 to 272 °C. This compound came in with an inhibition at 50 µM in the series on MCP-1 of less than 50%. Further, in series [1], the inhibition at 50 µM was not below 40%. In the series on VCAM-1, this compound had an inhibition at 50 µM not below 50%.

For `O=c1[nH]c2ccc(-c3cc(=O)c4ccccc4o3)cc2o1` [EXAMPLE 36, 6-(4-oxo-4H-chromen-2-yl)benzo[d]oxazol-2(3H)-one], the melting point was 347.6 to 348.2 °C. Further, in the series on MCP-1, the inhibition at 50 µM is less than 50%. Moreover, the inhibition at 50 µM in series [1] is not below 40%. In addition, the inhibition at 50 µM in the series with VCAM-1 is not below 50%.

In the case of `COc1cc(OC)c2c(=O)[nH]c(-c3cc(C)c(OCC(C)(C)O)c(C)c3)cc2c1` [EXAMPLE 42, 3-(4-(2-hydroxy-2-methylpropoxy)-3,5-dimethylphenyl)-6,8-dimethoxyisoquinolin-1(2H)-one], the melting point lay within 252 to 254 °C. For the same compound, the inhibition at 50 µM in the series on MCP-1 is less than 50%. In series [1], the inhibition at 50 µM was not below 40%. Moreover, the inhibition at 50 µM in the series on VCAM-1 is not below 50%.

Regarding `O=c1cc(-c2ccc3nccnc3c2)oc2ncccc12` [EXAMPLE 44, 2-(quinoxalin-6-yl)-4H-pyrano[2,3-b]pyridin-4-one], the melting point fell in the range of 272.3 to 274.8 °C. Also, the inhibition at 50 µM in the series with MCP-1 was less than 50%. The inhibition at 50 µM in series [1] is not below 40%. In the series with VCAM-1, this compound had an inhibition at 50 µM not below 50%.

As to `COc1cc(OC)c2c(N)nc(-c3cc(C)c(O)c(C)c3)cc2n1` [EXAMPLE 45, 4-(5-amino-2,4-dimethoxy-1,6-naphthyridin-7-yl)-2,6-dimethylphenol], the melting point was 163.2 to 165.5 °C. This compound also registered an inhibition at 50 µM in the series on MCP-1 of less than 50%. The inhibition at 50 µM in series [1] is not below 40%. In the series on VCAM-1, this compound displayed an inhibition at 50 µM not below 50%.

`O=c1[nH]c(-c2ccc(F)cc2)nc2ccc(CN3CCOCC3)cc12` [EXAMPLE 46, 2-(4-fluorophenyl)-6-(morpholinomethyl)quinazolin-4(3H)-one] returned a melting point of 321.8 to 323.3 °C. The inhibition at 50 µM in the series on MCP-1 was less than 50%. In series [1], the inhibition at 50 µM is not below 40%. For the same compound, the inhibition at 50 µM in the series with VCAM-1 is less than 50%.

The compound `O=c1cc(-c2ccc3[nH]ncc3c2)oc2ncc(CN3CCOCC3)cc12` [EXAMPLE 47, 2-(1H-indazol-5-yl)-6-(morpholinomethyl)-4H-pyrano[2,3-b]pyridin-4-one] had a melting point of 293.1 to 293.2 °C. Moreover, in the series on MCP-1, the inhibition at 50 µM was less than 50%. Besides, the inhibition at 50 µM in series [1] is not below 40%. In the series on VCAM-1, the inhibition at 50 µM was less than 50%.

Take `O=c1c(O)c(-c2ccc(O)c(O)c2)oc2cc(O)cc(O)c12` [quercetin]: the intestinal absorption result in series [2] is listed as “less than 1%”.

These data come from patent publication US8410109B2, “Pharmaceutical compositions for the prevention and treatment of complex diseases and their delivery by insertable medical devices” (Resverlogix Corp., priority 2005, dated 2013).
